# Measured values as given in patent US20080045796A1, “HISTOFLUORESCENT STAIN COMPOSITION FOR ENDOSCOPY” (PENTAX CORPORATION, priority 2006, published 2008).
# Assays:
# [1] = system: large intestine of a mouse; assay: Stainability: stain solution injected into large intestine, confocal cross-section of the lumen; conditions: 1.0 mg/mL, pH 6, 100 μL injected; images at every 5.0 μm from the luminal surface
# Protocol: Fast Green FCF was prepared to 1.0 mg/mL using a 0.1 M sodium phosphate buffer solution (pH 6), and 100 μL of the stain solution was injected into the large intestine of a mouse (ddY, 11 weeks old, male). To stain the large intestine evenly while preventing outflow of the stain, the mouse was subjected to laparotomy, and the stain was injected while clipping the upward colon side and the downward colon side of the extracted large intestine with hemostatic clips.
# The imaging conditions were such that the diameter of the confocal pinhole was 1.00 airy, and a lens of 20 magnifications was used.
# [2] = Measurement of absorption spectrum and fluorescence excitation spectrum; format: physicochemical
# Protocol: Measurement of an absorption spectrum and a fluorescence excitation spectrum of Fast Green FCF was performed. The Fast Green FCF (Wako Pure Chemical Industries, Ltd.) was adjusted to 1.0 mg/ml, and the light absorbance was continuously measured at a wavelength of from 200 to 750 nm using a spectrophotometer (manufactured by Shimadzu Corp., BioSpec-1600) to determine the wavelength at which the absorbance reached the maximum. The maximum absorption wavelength of 628 nm thus obtained was irradiated as an excitation wavelength, and the wavelength of the scattered light detected in the perpendicular direction to the light axis of the excitation light was measured using a fluorescence spectrophotometer (manufactured by Shimadzu Corp., RF-1500), thus to obtain a maximum excitation wavelength of 628 nm and a maximum fluorescence wavelength of 652 nm.
# Duodenum = assay: Tail vein administration, stainability for different regions: duodenum; format: in vivo, mouse
# Protocol: (§1) An evaluation of the tissue stain composition of the present invention was performed for the stainability for different regions. Duodenum, large intestine and liver were extracted and observed.
# (§2) Fast Green FCF was prepared to 10 mg/mL using physiological saline at pH 6.0. 100 μL of the prepared Fast Green FCF was administered to a mouse (ddY, 11 weeks old, male) through the tail vein, and the mouse was subjected to laparotomy after 5 minutes. The penetrability was observed by naked eyes, and the stainability and fluorescence were observed using a confocal microscope (Leica Microsystems Corp., TCP-SP2).
# The conditions for the confocal microscopic observation were such that the diameter of the confocal pinhole was 1.00 airy, and an oil immersion lens of 63 magnifications was used.
# [3] = system: tumor tissue developed in the upper part of the ovary of a rat; assay: Extracted tumor tissue immersed in stain, confocal microscope observation (single and double staining)
# Protocol: Fast Green FCF was prepared to 1.0 mg/mL using a 0.1 M sodium phosphate buffer solution (pH 7).
# The tumor tissue of the rat was extracted and immersed in the prepared stain for 5 minutes to stain the tissue. The remaining unpenetrated portion of the Fast Green was washed off with a 0.1 M sodium phosphate buffer solution (pH 6), and observation was made using a confocal microscope.
# The observation conditions were such that the pinhole diameter was 1.00 airy, and an oil immersion lens of 63 magnifications was used.
# To verify the stainability at a tumor part, Monascus Yellow was used together with Fast Green FCF to perform double staining. The Monascus Yellow was prepared to 1.0 mg/mL using a 0.1 M sodium phosphate buffer solution (pH 6).
# [4] = system: large intestine extracted from a mouse; assay: Stainability and tissue penetrability, fluorescence observation of frozen sections; conditions: 6 μm frozen sections, stained as in Example 3
# Text: The stainability and tissue penetrability of Fast Green FCF (Fast Green GCF, Wako Pure Chemical Industries, Ltd.) were checked by observation of a tissue specimen.
# A tissue specimen of the large intestine extracted from a mouse, which had been stained in the same manner as in Example 3, was embedded in an OCT Compound (Sakura Finetek Corp., Tissue-Tek O.C.T. compound), and was frozen by rapidly cooling with dry ice. The frozen section was sliced into 6 μm to prepare frozen sections, and fluorescence observation was performed. The fluorescence observation was performed using a confocal microscope (Leica Microsystems Corp., TCP-SP2) (imaging conditions: using a lens of 40 magnifications, pinhole diameter 171.3 μm).
# A tissue section which was similarly embedded in the OCT compound was HE-stained, and the observation result is shown in FIG. 9 as a Comparative Example.
# mouse large intestine = assay: Confocal microscope observation of extracted large intestine piece stained with the stain (stain specificity)
# Protocol: In order to find the stain specificity of the stain, Fast Green FCF (Wako Pure Chemical Industries, Ltd.) was diluted to a 2.0 mg/mL preparation using a 0.1 M sodium phosphate buffer solution (pH 7), and observation was performed using a confocal microscope (Leica Microsystems Corp., TCS-SP2).
# For the sample, a mouse was subjected to laparotomy to extract the large intestine, which was then cut into a piece of 1 cm at every edge and stained with the stain.
# The diameter of the confocal pinhole was 1.00 airy, and an oil immersion lens of 63 magnifications was used.
# Staining was performed by immersion in the same manner as in Example 2, excitation was induced at a wavelength of 488 nm, and the fluorescent images were observed.
# The conditions for the confocal microscope were the same, except for the wavelength of the irradiated laser.
# large intestine = assay: Tail vein administration, stainability for different regions: large intestine; format: in vivo, mouse; conditions: 10 mg/mL, 100 μL tail vein, laparotomy after 5 minutes
# Protocol: as §1, §2
# (§3) The conditions for the confocal microscopic observation were such that the diameter of the confocal pinhole was 1.00 airy, and a cross-sectional image of an area about 10 μm deep from the luminal surface, which image was taken using an oil immersion lens of 63 magnifications, is presented in FIG. 11.
# liver = assay: Tail vein administration, stainability for different regions: liver; format: in vivo, mouse
# Protocol: as §1, §2
# as §3, with “Furthermore, the surrounding septum was more strongly stained. The” for “The”, “area” for “area about”, “12.” for “11.”
# [5] = 10 mg/mL, 100 μL tail vein, laparotomy after 5 minutes
smiles,measurement,setting,value
CCN(Cc1cccc(S(=O)(=O)[O-])c1)c1ccc(C(=C2C=CC(=[N+](CC)Cc3cccc(S(=O)(=O)[O-])c3)C=C2)c2ccc(O)cc2S(=O)(=O)[O-])cc1.[Na+].[Na+] [Fast Green FCF],fluorescent contrast in confocal cross-sectional images,[1],provides good fluorescent contrast for the lamina propria mucosae
same,"can be excited at, for example",[2],628 nm
same,fluorescence detected at,[2],652 nm
same,maximum absorption wavelength,"[2]; 1.0 mg/ml, spectrophotometer 200 to 750 nm",628 nm
same,maximum excitation wavelength,[2]; fluorescence spectrophotometer,628 nm
same,maximum fluorescence wavelength,[2]; fluorescence spectrophotometer,652 nm
same,staining site under confocal microscope,Duodenum; [5],Strong staining was achieved not in the cytoplasm but in the cellular membrane or intercellular space
same,staining visible by naked eyes,Duodenum; [5],stained in deep-green color to an extent of being clearly visible by naked eyes
same,fluorescent contrast under a confocal microscope,Duodenum; epithelial cells,provides clear fluorescent contrast for the shape of the epithelial cells
same,contrast under a white light source,Duodenum; small intestinal villi,conferred contrast such that observation of the small intestinal villi under a white light source became feasible
same,fluorescent contrast in confocal images,"[3]; 1.0 mg/mL, pH 7, immersed 5 minutes",provided good fluorescent contrast for the connective tissue fibers in the tumor tissue
same,staining site in double staining,[3]; Monascus Yellow 1.0 mg/mL pH 6 together with Fast Green FCF,slightly stained the cells but more strongly stained the fibrous part
same,"fluorescent contrast in frozen section, compared with HE staining",[4],provided good fluorescent contrast for the lamina propria mucosae
same,fluorescent contrast in confocal image,"mouse large intestine; 2.0 mg/mL, pH 7, He-Ne laser 633 nm, fluorescence 650 to 750 nm",provided fluorescent contrast to the images of the intercellular space of the mucosal epithelium of the large intestine
same,"chromophilic regions, Fast Green FCF versus Fluorescite","mouse large intestine; Fluorescite excited at 488 nm, single and double-stained images",the stain and Fluorescite had different chromophilic regions
same,color change visible by naked eyes,large intestine,did not show color changes that were clear enough to be visible by naked eyes
same,penetration of the dye,large intestine,the dye penetrated sufficiently to the extent that imaging by a confocal imaging system was possible
same,staining site under confocal microscope,large intestine,"The intercellular space near the luminal surface, and the lamina propria mucosae were well stained"
same,staining site under confocal microscope,liver; [5],not only the intercellular space and cellular membrane as observed in the duodenum or large intestine but also the lobular parts were stained
same,fluorescent contrast under confocal microscope,liver; connective tissue in the liver,provided good contrast for the Glisson's capsule
